In ChEMBL document CHEMBL1148800, “Novel 2,7-dialkyl-substituted 5(S)-amino-4(S)-hydroxy-8-phenyl-octanecarboxamide transition state peptidomimetics are potent and orally active inhibitors of human renin” (J Med Chem, 2007):

Key:
[1] = species: Callithrix jacchus; assay: animal or person; details: Plasma, po, 6 h, read-out: Inhibition
Description: Inhibition of plasma renin activity in sodium depleted marmoset at 3 mg/kg, po after 6 hrs

[2] = species: Callithrix jacchus; assay: animal or person; details: Plasma, po, 6 h, read-out: Inhibition; remark: listed apart in the source
Description: Inhibition of plasma renin activity in sodium depleted marmoset at 10 mg/kg, po after 6 hrs

| Compound | inhibition in vivo at 3 mg/kg [1] [%] | inhibition in vivo at 10 mg/kg [2] [%] |
| --- | --- | --- |
| COCCCOc1cc(C[C@@H](C[C@H](N)[C@@H](O)C[C@@H](C)C(=O)NCCCC(N)=O)C(C)C)ccc1OC | 95 |  |
| COCCCOc1cc(C[C@@H](C[C@H](N)[C@@H](O)C[C@@H](C)C(=O)NCC(C)(C)N2CCOCC2)C(C)C)ccc1OC |  | 88 |
| COCCCOc1cc(C[C@@H](C[C@H](N)[C@@H](O)C[C@@H](C)C(=O)NCCN2CCSCC2)C(C)C)ccc1OC | 28 |  |
